According to ChEMBL document CHEMBL5137108, “Calofolic Acid-A from Calophyllum scriblitifolium Bark Has Vasorelaxant Activity via Indirect PKA Activation Caused by PI-3 Kinase Inhibition in Rat Vascular Smooth Muscle Cells” (J Nat Prod, 2022):
Calls of active or inactive are those of the source. The calls are words filed in the database; no cut-off is given here.

Experiments:
[1] = tested on: VSMC; experiment: Activation of PKA substrate phosphorylation in Wistar rat VSMCs at 10 uM incubated for 60 mins in the presence of IBMX by Western blot analysis; format: cell-based; settings: filed as activator
[2] = tested on: VSMC; experiment: Activation of PKA substrate phosphorylation in isoproterenol-induced Wistar rat VSMCs at 10 uM preincubated for 60 mins followed by isoproterenol stimulation and measured upto 20 mins by Western blot analysis; format: cell-based; settings: filed as activator, time 80.0 min
[3] = tested on: VSMC; experiment: Inhibition of AKT phosphorylation at Ser473 residue in Wistar rat VSMCs at 10 uM measured upto 60 mins by Western blot analysis; format: cell-based
[4] = tested on: VSMC; experiment: Activation of PKA substrate phosphorylation in Wistar rat VSMCs at 10 uM incubated for 60 mins by Western blot analysis; format: cell-based; settings: filed as activator
[5] = tested on: VSMC; experiment: Activation of PKA in isoproterenol-induced Wistar rat VSMCs assessed as fold increase in intracellular cAMP concentration at 10 uM measured 20 mins after ISO stimulation; format: cell-based; settings: filed as activator
[6] = tested on: VSMC; experiment: Cytotoxicity against Wistar rat VSMCs assessed as reduction in cell viability at 50 uM incubated for 48 hrs by MTT assay; format: toxicity, cell-based
[7] = tested on: VSMC; experiment: Inhibition of phenylephrine-induced MLC phosphorylation at Ser19 residue in Wistar rat VSMCs at 50 uM preincubated for 60 mins followed by phenylephrine stimulation and measured upto 30 mins by Western blot analysis; format: cell-based; settings: time 90.0 min
[8] = target: T1, Protein phosphatase 1 regulatory subunit 12A (Rattus norvegicus) (UniProt Q10728); experiment: Activation of MYTP1 phosphorylation at Ser668 residue in Wistar rat VSMCs at 50 uM incubated for 60 mins by Western blot analysis; format: cell-based; settings: VSMC, filed as activator
T1 sequence (whole entry): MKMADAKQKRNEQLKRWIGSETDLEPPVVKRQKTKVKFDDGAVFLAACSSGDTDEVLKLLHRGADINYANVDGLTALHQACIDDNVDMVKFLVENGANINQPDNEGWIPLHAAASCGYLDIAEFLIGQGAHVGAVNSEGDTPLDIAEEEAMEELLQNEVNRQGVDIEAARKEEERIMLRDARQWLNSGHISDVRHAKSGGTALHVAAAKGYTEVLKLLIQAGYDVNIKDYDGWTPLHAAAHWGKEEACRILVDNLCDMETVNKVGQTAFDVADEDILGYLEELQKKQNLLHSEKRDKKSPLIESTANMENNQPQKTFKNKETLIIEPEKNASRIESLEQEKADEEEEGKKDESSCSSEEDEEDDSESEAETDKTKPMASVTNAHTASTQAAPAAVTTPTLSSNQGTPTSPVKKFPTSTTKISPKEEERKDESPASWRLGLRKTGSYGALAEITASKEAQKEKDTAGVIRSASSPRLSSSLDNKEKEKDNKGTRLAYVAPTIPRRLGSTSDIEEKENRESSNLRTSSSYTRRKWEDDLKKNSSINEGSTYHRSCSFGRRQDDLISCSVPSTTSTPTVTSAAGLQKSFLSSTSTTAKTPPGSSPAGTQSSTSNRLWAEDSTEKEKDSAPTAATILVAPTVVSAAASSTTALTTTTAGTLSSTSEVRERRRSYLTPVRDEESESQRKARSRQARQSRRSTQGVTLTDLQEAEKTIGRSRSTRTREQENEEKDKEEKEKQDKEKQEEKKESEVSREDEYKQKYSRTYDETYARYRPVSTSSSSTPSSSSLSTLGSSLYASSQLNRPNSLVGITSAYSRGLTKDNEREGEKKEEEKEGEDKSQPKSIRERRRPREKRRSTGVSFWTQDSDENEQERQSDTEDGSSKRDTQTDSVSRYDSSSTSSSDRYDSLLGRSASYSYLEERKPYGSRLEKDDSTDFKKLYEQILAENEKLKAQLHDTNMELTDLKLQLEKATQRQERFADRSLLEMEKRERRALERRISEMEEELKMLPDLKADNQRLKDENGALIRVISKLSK

[9] = target: T1, Protein phosphatase 1 regulatory subunit 12A (Rattus norvegicus); experiment: Activation of MYTP1 phosphorylation at Ser668 residue in phenylephrine-stimulated Wistar rat VSMCs at 50 uM preincubated for 60 mins followed by phenylephrine stimulation and measured upto 30 mins by Western blot analysis; format: cell-based; settings: VSMC, filed as activator, time 90.0 min
[10] = target: T1, Protein phosphatase 1 regulatory subunit 12A (Rattus norvegicus); experiment: Activation of MYTP1 phosphorylation at Ser695 residue in phenylephrine-stimulated Wistar rat VSMCs at 50 uM preincubated for 60 mins followed by phenylephrine stimulation and measured upto 30 mins by Western blot analysis; format: cell-based; settings: VSMC, filed as activator, time 90.0 min
[11] = tested on: VSMC; experiment: Activation of HSP20 phosphorylation in isoproterenol-induced Wistar rat VSMCs at 50 uM preincubated for 60 mins followed by ISO stimulation and measured upto 30 mins by Western blot analysis; format: cell-based; settings: filed as activator, time 90.0 min
[12] = tested on: VSMC; experiment: Activation of PKA substrate phosphorylation in Wistar rat VSMCs at 50 uM incubated for 60 mins by Western blot analysis; format: cell-based; settings: filed as activator
[13] = tested on: VSMC; experiment: Activation of HSP90 phosphorylation in Wistar rat VSMCs at 50 uM incubated for 60 mins by Western blot analysis; format: cell-based; settings: filed as activator
[14] = tested on: VSMC; experiment: Activation of PKA substrate phosphorylation in isoproterenol-induced Wistar rat VSMCs at 50 uM preincubated for 60 mins followed by ISO stimulation and measured upto 30 mins by Western blot analysis; format: cell-based; settings: filed as activator, time 90.0 min
[15] = tested on: VSMC; experiment: Activation of PKA substrate phosphorylation in Wistar rat VSMCs incubated for 60 mins by Western blot analysis; format: cell-based; settings: filed as activator, dose 5-50 µM, DDE = dose-dependent effect
[16] = tested on: B16-F10; experiment: Activation of PKA substrate phosphorylation in mouse B16-F10 cells incubated for 60 mins by Western blot analysis; format: cell-based; settings: filed as activator
[17] = target: cAMP-dependent protein kinase (PKA) (Homo sapiens) (UniProt P22694+P17612+P22612); experiment: Activation of PKA substrate phosphorylation in HEK293 cells incubated for 60 mins by Western blot analysis; format: cell-based; settings: filed as activator
[18] = tested on: VSMC; experiment: Activation of PKA substrate phosphorylation in Wistar rat VSMCs at 10 uM incubated for 60 mins in the presence of LY294002 by Western blot analysis; format: cell-based; settings: filed as activator
[19] = tested on: VSMC; experiment: Inhibition of isoproterenol-induced AKT phosphorylation at Thr308 residue in Wistar rat VSMCs at 50 uM preincubated for 60 mins followed by ISO stimulation and measured upto 30 mins by Western blot analysis; format: cell-based; settings: time 90.0 min
[20] = tested on: VSMC; experiment: Inhibition of isoproterenol-induced AKT phosphorylation at Ser473 residue in Wistar rat VSMCs at 50 uM preincubated for 60 mins followed by ISO stimulation and measured upto 30 mins by Western blot analysis; format: cell-based; settings: time 90.0 min
[21] = Inhibition of recombinant human full length PI3K p110alpha/[…] alpha activity assessed as PIP3 generation using PI(4,5)P2 (PIP2) as substrate incubated for 3 hrs by competitive binding based colorimetric analysis
[22] = tested on: VSMC; experiment: Activation of PKA in isoproterenol-induced Wistar rat VSMCs assessed as fold increase in intracellular cAMP concentration at 50 uM measured 20 mins after ISO stimulation relative to isoproterenol; format: cell-based; settings: filed as activator
[23] = tested on: VSMC; experiment: Activation of PKA substrate phosphorylation in Wistar rat VSMCs at 100 uM incubated for 60 mins by Western blot analysis; format: cell-based; settings: filed as activator
[24] = tested on: VSMC; experiment: Activation of PKA substrate phosphorylation in isoproterenol-induced Wistar rat VSMCs at 100 uM preincubated for 60 mins followed by ISO stimulation and measured upto 30 mins by Western blot analysis; format: cell-based; settings: filed as activator, time 90.0 min
[25] = tested on: VSMC; experiment: Activation of PKA in isoproterenol-induced Wistar rat VSMCs assessed as increase in intracellular cAMP concentration at 100 uM measured 20 mins after ISO stimulation; format: cell-based; settings: filed as activator
[26] = tested on: VSMC; experiment: Inhibition of isoproterenol-induced PKA substrate phosphorylation in Wistar rat VSMCs at 10 uM preincubated for 60 mins followed by ISO stimulation and measured upto 30 mins by Western blot analysis; format: cell-based; settings: time 90.0 min

For `O=c1cc(N2CCOCC2)oc2c(-c3ccccc3)cccc12`, the Activity [1] was “Active”, the Activity [2] was “Active” and the inhibition [3] was “Active”. The Activity [4] was “Active” and the fold change (FC) [5] was 2.
For `CC[C@H](CC(=O)O)c1c2c(c(O)c3c1O[C@H](C)[C@H](C)C3=O)C=CC(C)(C)O2`, the Activity [6] was 80%, the inhibition [7] was “Active” and the Activity [8] was “Active”. The Activity [9] was “Active”, the Activity [10] was “Active” and the Activity [11] was “Active”. The Activity [12] was “Active”, the Activity [13] was “Active” and the Activity [14] was “Active”. The Activity [15] was “Dde”, the Activity [16] was “Active” and the Activity [17] was “Active”. The Activity [2] was “Active”, the Activity [18] was “Active” and the inhibition [19] was “Active”. The inhibition [20] was “Active”, the IC50 [21] was 6 µM and the fold change (FC) [22] was 2.5.
For `CC(C)Cn1c(=O)n(C)c(=O)c2nc[nH]c21`, the Activity [23] was “Active”, the Activity [24] was “Active” and the Activity [2] was “Active”. The Activity [25] was “Active”.
In the case of `O=S(=O)(NCCNC/C=C/c1ccc(Br)cc1)c1cccc2cnccc12`, the inhibition [26] is reported as “Active”.
